We go through ten molecules from patent US8586572B2, “3-phenyl-azetidine derivatives useful as modulators of cortical catecholaminergic neurotransmission” (Integrative Research Laboratories Sweden AB, priority 2008, dated 2013).

Structures can show the parent of a compound that is named as a salt.

Data set [1] has as its system extracellular NA, DA and 5-HT in striatum. Briefly: Microdialysis in awake and freely moving rats, dorsal striatum. Type of data set: in vivo, rat. The note with it: 50 μmol/kg s.c., awake freely moving rats; for DA Stri ± SEM, maximum effect compared to baseline values: dopamine in striatum dialysate; for 5-HT Stri ± SEM, maximum effect compared to baseline values: serotonin in striatum dialysate. The source says: (§1) Male Sprague-Dawley rats weighing 220-320 g were used throughout the experiments. Before the experiment the animals were group housed, five animals in each cage, with free access to water and food. The animals were housed at least one week after arrival prior to surgery and use in the experiments. Each rat was used only once for microdialysis.
(§2) We use a modified version (Waters et al., 1994) of the I-shaped probe (Santiago and Westerink, 1990). The dialysis membrane we use is the AN69 poly-acrylonitrile/sodiummethalylsulfonate copolymer (HOSPAL; o.d./i.d. 310/220 μm: Gambro, Lund, Sweden). In the dorsal striatum we use probes with an exposed length of 3 mm of dialysis membrane and in the prefrontal cortex the corresponding length is 2.5 mm. The rats were operated under isoflurane inhalationanesthesia while mounted into a Kopf stereotaxic instrument. Co-ordinates were calculated relative to bregma; dorsal striatum AP +1, ML ±2.6, DV −6.3; Pf cortex, AP +3.2, 8° ML ±1.2, DV −4.0 according to (Paxinos & Watson, 1986). The dialysis probe was positioned in a burr hole under stereotaxic guidance and cemented with phosphatine dental cement.
(§3) The rats were housed individually in cages for 48 h before the dialysis experiments, allowing them to recover from surgery and minimizing the risk of drug interactions with the anaesthetic during the following experiments. During this period the rats had free access to food and water. On the day of experiment the rats were connected to a micro perfusion pump via a swiwel and were replaced in the cage where they could move freely within its confinements. The perfusion medium was a Ringer's solution containing in mmol/l: NaCl; 140, CaCl2; 1.2, KCl; 3.0, MgCl2; 1.0 and ascorbic acid; 0.04 according to (Moghaddam & Bunney, 1989). The pump was set to a perfusion speed of 2 μl/min and 40 μl samples were collected every 20 min. Each sample was analyzed at two HPLC systems. On an autoinjector (CMA 200) with a 10-port valve (Valco C10WE), holding two sample loops in series (4 μl and 20 μl), each brain dialysate sample is loaded in both loops simultaneously. At injection the 20 μl sample is introduced into a column switching system (reverse-phase combined with reverse-phase ion-pairing) for dopamine (DA), noradrenaline (NA), normetanephrine (NM), 3-methoxytyramine (3-MT) and serotonin (5-hydroxytryptamine, 5-HT) determination, while the 4 μl sample is introduced on a reverse-phase column for the chromatography of the acidic monoamine metabolites 3,4-di-hydroxyphenylacetic acid (DOPAC), homovanillic acid (HVA) and 5-hydroxyindoleacetic acid (5-HIAA). The currents generated by the two EC detectors are converted to digital data and evaluated using Chromeleon software (Dionex) on a PC. The method sample turn over time was 4.5 min and two parallel experiments are normally analyzed simultaneously on the system.
(§4) After the experiment the rats were uncoupled from the perfusion pump and decapitated. Their brains were rapidly taken out and fixed in Neo-fix solution (Kebolab, Sweden) for subsequent inspection of probe localisation. The Animal Ethics Committee in Göteborg, Sweden approved the procedures applied in these experiments.
(§5) The microdialysis was performed in awake and freely moving rats.
(§6) Dopamine=DA; Norepinephrine=NA; Serotonin=5-HT; Stri=Striatum; PFC=Prefrontal Cortex.

The subject of data set [2] is extracellular NA, DA and 5-HT in prefrontal cortex. Briefly: Microdialysis in awake and freely moving rats, prefrontal cortex. In kind it is in vivo, rat. The settings on record: 50 μmol/kg s.c., awake freely moving rats; for DA PFC ± SEM, maximum effect compared to baseline values: dopamine in prefrontal cortex dialysate; for NA PFC ± SEM, maximum effect compared to baseline values: norepinephrine in prefrontal cortex dialysate; for 5-HT PFC ± SEM, maximum effect compared to baseline values: serotonin in prefrontal cortex dialysate.
Description: as §1, §2, §3, §4, §5, §6

Regarding `CCN1CC(O)(c2cc(F)cc(F)c2)C1` (as salt: fumaric acid salt), the melting point lay within 140 to 141 °C.
As for `CCN1CC(O)(c2cc(F)cc(Cl)c2)C1` (as salt: fumaric acid salt), the melting point lay in the range of 166 to 168 °C.
As for `CCN1CC(O)(c2cccc(Cl)c2F)C1` (as salt: fumaric acid salt), the melting point lay within 172 to 173 °C.
Still for that read-out and setting: for `CCN1CC(O)(c2cccc(F)c2F)C1` (as salt: fumaric acid salt) [Example 1, 3-(2,3-difluorophenyl)-1-ethylazetidin-3-ol] the value was 148 to 150 °C.
Still for that read-out and setting: for `CCN1CC(O)(c2ccc(F)c(F)c2)C1` (as salt: fumaric acid salt) [Example 2, 3-(3,4-difluorophenyl)-1-ethylazetidin-3-ol] the value was 177 to 179 °C; for `COC1(c2cccc(F)c2F)CNC1` (as salt: oxalic acid salt) [Example 8, 3-(2,3-difluorophenyl)-3-methoxyazetidine], 141 to 142 °C; for `CCN1CC(OC)(c2cccc(F)c2F)C1` (as salt: oxalic acid salt) [Example 9, 3-(2,3-difluorophenyl)-1-ethyl-3-methoxyazetidine], 147 to 148 °C.
`CCN1CC(O)(c2cccc(F)c2F)C1` [Example 1, 3-(2,3-difluorophenyl)-1-ethylazetidin-3-ol]: in data set [1], the “DA Stri ± SEM, maximum effect compared to baseline values” is reported as 219 ± 113% of control and the “5-HT Stri ± SEM, maximum effect compared to baseline values” is reported as 113 ± 13% of control. The “NA Stri ± SEM, maximum effect compared to baseline values” in data set [1] (norepinephrine in striatum dialysate) was 261 ± 151% of control. Moreover, in data set [2], the “DA PFC ± SEM, maximum effect compared to baseline values” is 211 ± 61% of control; the “NA PFC ± SEM, maximum effect compared to baseline values” was 438 ± 91% of control; the “5-HT PFC ± SEM, maximum effect compared to baseline values” is listed as 130 ± 11% of control.
For the molecule `CCN1CC(O)(c2ccc(F)c(F)c2)C1` [Example 2, 3-(3,4-difluorophenyl)-1-ethylazetidin-3-ol], in data set [1], the “DA Stri ± SEM, maximum effect compared to baseline values” is on record as 112% of control and the “5-HT Stri ± SEM, maximum effect compared to baseline values” is given as 162% of control. In addition, in data set [2], the “DA PFC ± SEM, maximum effect compared to baseline values” was 309 ± 62% of control; the “NA PFC ± SEM, maximum effect compared to baseline values” is given as 397 ± 59% of control; the “5-HT PFC ± SEM, maximum effect compared to baseline values” was 182 ± 33% of control.
On the same counts, the results for `CCN1CC(OC)(c2cccc(F)c2F)C1` [Example 9, 3-(2,3-difluorophenyl)-1-ethyl-3-methoxyazetidine] are 122 ± 12% of control, 134 ± 22% of control, 215 ± 54% of control, 298 ± 79% of control and 169 ± 65% of control.

Broadly, the melting point is the temperature of the solid-liquid transition.
